Data on 4 compounds can be found in patent US6416965B2, “Screening methods for presqualene disphosphate analogs” (Brigham and Women's Hospital, priority 1997, dated 2002).

Assay [1] has as its system electroporated neutrophils. The assay can be described thus: Superoxide anion generation (NADPH oxidase activity) by electroporated neutrophils. It counts as cell-based, human. From the text: To test the impact of compounds VI and VIII on neutrophil responses, the isolated lipids were introduced into neutrophils by electroporation prior to determining NADPH oxidase activity. […] Prenyl cysteine analogues can disrupt G-protein interaction with activated FMLP receptors (Scheer, A. & Gierschik, P. Biochemistry. 34,4952-4961 (1995), the teachings of which are incorporated herein by reference); therefore to determine compound VI's level of action, neutrophil superoxide anion generation was examined in the presence of phorbol 12-myristate 13-acetate (PMA), a potent trigger for O2- production which bypasses cell surface receptors to stimulate protein kinase C and subsequent NADPH assembly (see for example, Baggiolini, M., Boulay, F., Badwey, J. A. & Curnutte, J. T. FASEB J. 7, […] (1993); FIG. 3c).
After electroporation, cells in cytochrome c (0.7 mg/ml) were exposed (10 min, 37° C.) to PMA (10^−7 M), FMLP (10^−7 M) plus cytochalasin b (15 μg/ml), compound VI (1 μM) or compound VIII (1 μM) and supernatants monitored at 550 nm. Values represent the mean±SEM for n≧4.
(§1) Neutrophils (10^7/500 μl) were electroporated (1.65 kV/cm, 250 μF, Ω∞, Invitrogen Electroporator VI) at 0° C. in the presence of 10−^9-10−^6 M compound VI, VIII, FDP, FMP, squalene or vehicle (ethanol 0.2%). After electroporation, cells, in cytochrome c (0.7 mg/ml), were exposed (10 minutes, 37° C.) to either cytochalasin b (5 μg/mL) and FMLP (10^−7 M)(a) or PMA ((10^−7 M)(b) and supernatants monitored at […]. Electroporation gave a 49.9% reduction in FMLP-stimulated NADPH oxidase compared to naive cells. Values (FIGS. 4a and 4b) represent the mean±SEM for n≧3, d≧6. For adhesion (FIGS. 4c and 4d), changes in light transmittance were monitored (as in Fiore, S., Nicolaou, K. C., Caulfield, T., Kataoka, H. & Serhan, C. N. Biochem. J. 266, 25-31 (1990), the teachings of which are incorporated herein by reference) after addition of compounds VI, VIII (1.6 μM) or vehicle (0.5 min) and FMLP (0.5-5 μM) (2.5 min). Cell viability remained>99%. Values represent the mean±SEM for n=3, d=9. 1,4,5-inositol-triphosphate levels were determined (Amersham) in fresh PMN (10^7 cells) exposed (5 minutes, 37° C.) to compound VI, compound VIII (1 μM) or vehicle and stimulated with FMLP (10^−7M, 37° C.) (as in FIG. 4e). % Inhibition after 10 second exposure to FMLP is reported as mean±SEM for n=4, d≧8. *p <0.05 in Student's paired t-test compared with control, while “NS” indicates no significant change compared to incubations in the presence of vehicle (ethanol 0.2%) alone. Stereochemistry of PSDP and PSMP (FIG. 4f) were assigned by routine methods (Poulter, C. D. and Rilling, H. C. Acc. Chem. Res. 11, 307-313, (1978), the teachings of which are hereby incorporated by reference).

Another assay has as its system neutrophils. Description: Neutrophil homotypic adhesion (aggregation, light transmittance). The assay is classed as cell-based, human. The protocol: as §1
A further assay deals with human neutrophils. Description: FMLP-stimulated 1,4,5-inositol triphosphate (IP3) formation as surrogate for phospholipase C activity. It counts as cell-based. The settings on record: nM-μM amounts. The protocol: as §1
In addition to PLD, phospholipase C plays a critical role in intracellular signaling via the hydrolysis of inositol lipids to diacyl glyceride (DAG) and inositol trisphosphate (IP3) to effect a cascade of cellular events in response to pro-inflammatory stimuli. DAG activates protein kinases and is converted, in part, to phosphatidic acid by DAG kinase. Therefore, PLC together with DAG kinase provides a second major source of phosphatidic acid in human neutrophils (Agwu, DE, et al., Journal of Clinical Investigation 1991; 88:531). […] To this end, the impact of PSDP on fMLP-stimulated IP3 formation as a surrogate for phospholipase C activity was examined (FIG. 4e).
Amersham's D-myo-inositol 1,4,5-trisphosphate (IP3) [^3H] assay was used for this procedure (Amersham code TRK 1000, including product assay, the contents of which are incorporated herein by reference). The assay is based on procedures developed by Takata S. et al. J. Clin. Invest. 93:499 (1994) and Dillon S. B. et al. J. Biol. Chem. 262:11546 (1987), the contents of which are incorporated herein by reference in their entirety. [drawing 24] […]

The next assay has as its system neutrophil sonicates. The assay can be described thus: Superoxide anion generation by neutrophil sonicates (post-nuclear supernatants, cytochrome c reduction). It counts as biochemical, human. The settings on record: arachidonic acid C20:4 75 μM, phosphatitic acid C10:0 100 μM. As for the experimental part:
Neutrophil lipids were saponified (10% KOH in methanol, 37° C., 30 min), extracted (Van Dessel, G. A. F., Lagrou, A. R. Hilderson, H. J. J. & Dierick, W. S. H. In: CRC Handbook of Chromatography (eds Mukherjee, K. D., Weber, N. & Sherma, J.) 321-337 (CRC Press, Boca Raton, 1993)) and separated by CC4 silica (1 gm/10^8 PMN) column chromatography as in FIG. 1f. […] After 2 min (37° C.) in a thermal-jacketed cuvette, β-NAPH (200 μM) was added to initiate reactions and absorbance (550 nm) was monitored at 15 second intervals. […]
To determine O2- production (FIGS. 1a-c), post-nuclear supernatants from neutrophils after sonication (0.1-0.5 mg protein/ml) (as generally described in Bromberg, Y. & Pick, E. Cell. Immunol. 88, 213-221 (1984), the teachings of which are incorporated herein by reference), 100 μM phosphatitic acid (C10:0, Avanti Polar Lipids, Inc.) and lipid extracts (0.1% ethanol) were added to cytochrome c (60 μM), sucrose (170 mM), EGTA (1 mM), FAD (10 μM), NaN3 (2 mM) and either superoxide dismutase (30 ug/ml) or H20 at 0° C. […] After 2 min (37° C.) in a thermal-jacketed cuvette, B-NADPH (200 μM) was added to initiate reactions and absorbance (550 nm) was monitored at 15 second intervals or following termination (10 minutes, 0° C.). […]

A further assay has as its system PMN. Description: 32PO4 incorporation into non-saponifiable lipids of PMN labeled with γ-32PO4-ATP. The assay is classed as cell-based, human. The following applies: GM-CSF 25 ng/ml, 60 min, 37° C.; relative to cells without agonist. As for the experimental part: To determine FMLP (10−^7 M)-induced changes in compound VI and VIII mass (inset), radioactive compounds were eluted and inorganic phosphorus levels were measured. In addition, PMN labeled with γ-^32PO4-ATP were incubated in the presence or absence of GM-CSF (25 ng/ml, 60 min, 37° C.)(b) with ^32P content quantitated as above. Values represent the mean±SEM for duplicate determinations from at least two separate PMN. The percent increase after exposure to GM-CSF is relative to parallel incubations with cells in the absence of agonist. **p<0.0005 and * p<0.03 by Student's paired t-test.

`CC(C)=CCC/C(C)=C/CC/C(C)=C/C1C(COP(=O)(O)O)C1(C)CC/C=C(\C)CCC=C(C)C` (stereo in doubt) [Compound VIII, presqualene monophosphate]: the “influence on PMA-stimulated O2- production” value in assay [1] (PMA 10^-7 M, electroporated neutrophils) is on record as “not significantly influenced”. Besides, in assay [1] (nM-μM amounts), the “inhibition of neutrophil superoxide anion generation” value is listed as “not”. In addition, the “FMLP-triggered O2- production in the presence of the compound” value in assay [1] (nM-μM quantities, electroporated neutrophils) is recorded as “unaltered”. Moreover, in assay [1] (no agonist, 1 μM (FIG. 3c)), the “stimulation of O2- production by the compound alone” value is given as “neither compound VI nor VIII alone stimulated”. The “stimulation of adhesion by the compound alone” value in the assay with neutrophils (no agonist) was “neither compound VI nor VIII alone stimulated”. Besides, the “inhibition of FMLP-stimulated homotypic adhesion” value with neutrophils (μM levels) is reported as “not”. The “inhibition of 1,4,5-inositol-triphosphate formation” value with human neutrophils is recorded as “not”.

`CCCCC/C=C\C/C=C\C/C=C\C/C=C\CCCC(=O)O` [arachidonic acid]: the “rate of superoxide anion generation (O2- production)” value in the assay with neutrophil sonicates turned out to be 1.38 nmoles/mg protein/min.

Take `CCCCCCCCCC(=O)OC[C@H](COP(=O)(O)O)OC(=O)CCCCCCCCC` [phosphatitic acid]: in the assay with neutrophil sonicates, the “rate of superoxide anion generation (O2- production)” value worked out at 1.34 nmoles/mg protein/min.

For the compound “GM-CSF: granulocyte/monocyte-colony stimulating factor, cytokine”, in the assay on PMN, the “increase of 32PO4 incorporation into compound VI” value was determined as 45.0% and the “increase of 32PO4 incorporation into compound VIII” value came out at 84.1%.
